# Assay results from patent US20250367251A1, “SKELETON PROTECTION METHOD USING PEPTIDE” (Pell Bio-Med Technology Co., Ltd., priority 2024, published 2025).
# Non-standard residues stand in square brackets, D forms with d. Residues, ends and D or L forms follow the SMILES beside them. pGlu = O=C1CC[C@@H](C(=O)O)N1
# What was measured:
# [1] = tested on: adjuvant-induced arthritis (AIA) model in C57BL/6 mice; experiment: Adjuvant-induced arthritis (AIA) model, micro-CT of calcaneus bone (cortical surface, bone mineral density); format: in vivo
# Source text: Scientific reports, 7(1), 8870. […] Said mice were sacrificed on Day 45.
# Each mouse was anesthetized (2.5% isoflurane, 1.0 L/min air) and the anesthetic gas was maintained during the scanning. The mouse was subjected to lay on one side on the carbon fiber half-tube bed while kept anesthetized in the micro-CT scanner (Skyscan 1076), and the right hindpaw was positioned on a cylindrical shape styrofoam holder. The mouse's paw was immobilized at the scanning midline of the scanner to eliminate any undesirable movement of the paw.
# Settings for the micro-CT scanner (SkyScan-1076; Bruker micro CT, Belgium) were as follows: isotropic voxel size: 9 μm, tube voltage: 49 kV, current: 167 μA, Al filter: 0.5 mm, and 180° scan with 0.6° rotation step […] with frame averaging of 3. Subsequently, micro CT projections were back projection-reconstructed using the NRecon software (NReconServer64 bit, Bruker, MicroCT, Belgium) and volume-rendered and visualized in 3D with the CTVox software (Bruker, MicroCT, Belgium). The images of calcaneus bone were segmented and analyzed using the CTAn software (Bruker, MicroCT, Belgium).
# GraphPad Prism 9.3.1 (GraphPad Software, USA) was used for statistical analyses and graphing. Data are presented as mean±standard deviation. The level of statistical significance was set at 5% (P<0.05) for all analyses. Data analysis of the indexes derived from the μCT images of calcaneus bone of mice was carried out, for example, One-way RM ANOVA (One-way Repeated Measures Analysis of Variance) with Tukey's post hoc test was used for data analysis of bone mineral density.
# The observation time window of μCT scanning was set before AIA induction (Week 0), at the end of induction (Week 4), and after 1 or 2 weeks' treatment (i.e., Week 5 and Week 6). According to FIG. 1A and FIG. 1B, obviously, the surface integrity of the calcaneus bone was disturbed at Week 4 (the end of induction and prior to treatment), manifested as unevenness of the cortical bone (dashed line circle, Week 4 vs Week 0).
# [2] = Preliminary safety profile in AIA mice (body weight changes, observation); conditions: for body weight changes: oral once daily, after 1- or 2-week treatment (Week 5 or Week 6), compared with Week 4 or vehicle group, P>0.05
# Protocol: This animal study was carried out according to the adjuvant-induced arthritis (AIA) model designed by Academia Sinica, Taipei, Taiwan. Specifically, arthritis induction was performed according to the method described in Gauldie, S. D., McQueen, D. S., Clarke, C. […] In short, this animal study comprised thirty C57BL/6 mice purchased from National Laboratory Animal Center, Taiwan, which were 8 weeks old with a body weight of about 20 to 25 grams. By using a 30-gauge needle mounted on a 100 μl Hamilton syringe, said mice were respectively injected with 5 μg Complete Freund's Adjuvant (CFA) (F5881, Sigma, USA) in the right ankle joint once a week for consecutive 4 times, wherein the first injection was carried out at week 0 (day 0), and said mice were anesthetized and maintained with 2% isoflurane during the injection. The AIA model can induce long-term inflammation and swelling in unilateral anterior ankle joints in C57BL/6 mice, thereby simulating the clinical long-term chronic pain of patients with rheumatoid arthritis.
# After CFA induction, said mice were weekly weighted and scored with rheumatoid arthritis score estimation (data not shown) according to Hsieh, W. S., et al. (2017). […] The mice were assigned to 5 groups: (1) vehicle group, (2) P1 group (provided with 1 mg/kg/day peptide of SEQ ID NO: 1), (3) P3 group (provided with 3 mg/kg/day peptide of SEQ ID NO: 1), (4) P10 group (provided with 10 mg/kg/day peptide of SEQ ID NO: 1), and (5) T group (provided with 12.4 mg/kg/day tofacitinib). Said animal grouping was based on the rheumatoid arthritis scores by a random sampling mode. The drug administration from Week 4 (Day 28) to Week 6 (Day 42) was as follows: said mice received once-daily oral dosing (gavage) of 5 μL/g of body weight (bw) of a solution comprising: (1) the peptide of SEQ ID NO: 1 (1 mg/kg bw, 3 mg/kg bw or 10 mg/kg bw, dissolved in water) in P1, P3 and P10 group, respectively, (2) tofacitinib (12.4 mg/kg bw, dissolved with 0.5% carboxymethylcellulose aqueous solution) in T group, and (3) water in vehicle group. Said mice were sacrificed on Day 45. […]
# RAW264.7 cells = experiment: Bone resorption assay (RANKL-induced, CaP-coated plate pit area); format: cell-based; conditions: 100 μM with 100 ng/ml RANKL, 7 days, p<0.001 vs RANKL group
# Protocol: This test used RANKL (receptor activator of nuclear factor kappa-B ligand) as an inducer of osteoclastic differentiation to detect whether the peptide of SEQ ID NO: 1 could inhibit osteoclast resorptive function induced by RANKL in vitro, and comprised three groups: control group, RANKL group and treatment group.
# First, RAW264.7 cells were seeded in a calcium phosphate (CaP)-coated 96-well with a density of 2×10^3 cells per well. RAW264.7 is a macrophage cell line, and RAW264.7 cells can differentiate into an osteoclast. The cells of all groups were cultivated for 7 days according to the manufacturer's instructions of Bone Resorption assay kit (Cosmo Bio). The differences between control group, RANKL group and treatment group were as follows: • (1) Control group: neither RANKL nor the peptide of SEQ ID NO: 1 was provided to RAW264.7 cells during a 7-day incubation period. • (2) RANKL group: RANKL in a concentration of 100 ng/ml was provided to RAW264.7 cells at Day 1 and incubated for 7 days. • (3) Treatment group: RANKL in a concentration of 100 ng/ml and the peptide of SEQ ID NO: 1 in a concentration of 100 μM were simultaneously provided to RAW264.7 cells at Day 1 and incubated for 7 days.
# After the 7-day incubation period, all wells of all groups were washed with 0.2 ml to 0.5 ml of 5% sodium hypochlorite to remove the cells adhered to the surface. […]
# SW982 cells = experiment: SW982 cell migration measurement (wound healing experiment); format: cell-based; conditions: 10^−7 to 10^−5 μM, 24 h
# Source text: It is known that fibroblast-like synoviocytes secrete inflammatory cytokines, chemokines, and matrix metalloproteinases (MMPs) and induce cell migration and invasion to damage joints and cartilage. We next examined the effect of the peptide of SEQ ID NO: 1 on SW982 cell migration through a conventional wound healing experiment. Specifically, a Culture-Insert 2 Well (ibidi) in which two cell culture reservoirs were separated by a 500 μm wall was placed on a cell culture plate surface. Both reservoirs were filled with cells suspension containing L15 culture medium and 4×10^4 SW982 cells to allow cell growth in the designated areas. After appropriate cell attachment of all SW982 cells, the Culture-Insert 2 Well was removed to create a cell-free gap of approximately 500 μm. The cell monolayer was washed with PBS buffer to remove detached cells and debris. The SW982 cells were incubated with the peptide of SEQ ID NO: 1 (10^−5, 10^−6, 10^−7 μM) in L15 culture medium or with L15 culture medium only (as control group) for 24 h in a carbon dioxide-free environment. By using direct microscopic visualization, a reference point at the bottom was created in each field, and the image of the remaining cell-free area in the identical field shot immediately after 24 h-treatment of the peptide of SEQ ID NO: 1 was measured to analyze cell migration and wound healing rates. […]
# SW982 synoviocytes = experiment: Cell viability test (CCK-8) of SW982 synoviocytes; format: cell-based
# Protocol: Owing to the restricted lifespan of primary rheumatoid arthritis fibroblast-like synoviocytes (RA-FLS), the fibroblast-like synoviocytes (FLS) cell line SW982 synoviocytes (hereinafter referred to as SW982 cells) are well accepted as a useful in vitro model for studying the pathogenesis of RA. In short, SW982 cells were seeded in a 96-well plate at a cell density of 6,000 cells per well. After the cells were treated in the following groups, the effect of each treatment group on the viability of SW982 cells was tested by means of the cell proliferation detection kit (cell counting kit-8, CCK8; Elabscience, Catalog No: E-CK-A361) according to the manufacturer's manual. Said treatment groups were as follows: (1) Different concentrations of the peptide of SEQ ID NO: 1: SW982 cells were treated with the L15 culture medium containing 10^−6, 10^−7, 10^−8, 10^−9 μM of the peptide of SEQ ID NO: 1 for 24 hours; (2) IL-1β stimulation group: SW982 cells were stimulated with the culture medium containing 1 ng/mL IL-1β for 24 hours to simulate the inflammatory synoviocytes of rheumatoid arthritis; (3) Co-treatment group: SW982 cells were treated with culture medium containing 10^−9 μM of the peptide of SEQ ID NO: 1 and 1 ng/mL of IL-1β for 72 hours. The SW982 cells in said treatment groups were all cultured in a carbon dioxide-free environment. In addition, SW982 cells were simply cultured in L15 medium for 24 hours, as the control group. This test uses 2-(2-methoxy-4-nitrophenyl)-3-(4-nitrophenyl)-5-(2,4-disulfophenyl)-2H-tetrazolium sodium salt (WST-8) from CCK-8 kit to react with the dehydrogenase in viable cells, so that the color of all treatment groups containing WST-8 turned from pink to orange. By detecting the absorbance value at 450 nm, the activity of dehydrogenase was determined to calculate the number of viable cells.
Molecule,"bone mineral density (BMD) of calcaneus bone ([1]; 12.4 mg/kg/day oral, 1- or 2-week treatment, Week 5/6 vs Week 4, P>0.05)","bone contour / cortical surface of calcaneus bone (micro-CT) ([1]; 12.4 mg/kg/day oral, Week 6 vs Week 4)",body weight changes [2],"bone contour / cortical surface of calcaneus bone (micro-CT) ([1]; 1 mg/kg oral once daily, Week 4 to Week 6)","bone mineral density (BMD) of calcaneus bone ([1]; 1 mg/kg oral, 1- or 2-week treatment, Week 5/6 vs Week 4, P>0.05)","bone contour / cortical surface of calcaneus bone (micro-CT) ([1]; 3 mg/kg oral once daily, Week 4 to Week 6)","bone mineral density (BMD) of calcaneus bone ([1]; 3 mg/kg oral, 1- or 2-week treatment, Week 5/6 vs Week 4, P>0.05)","bone contour / cortical surface of calcaneus bone (micro-CT) ([1]; 10 mg/kg oral once daily for 2 weeks, Week 6 vs Week 4)","bone mineral density (BMD) of calcaneus bone ([1]; 10 mg/kg oral, after 1-week treatment)","bone mineral density (BMD) of calcaneus bone ([1]; 10 mg/kg oral, after 2 week treatment, Week 6 vs Week 4, P<0.05)",pit area (calcium phosphate resorption) relative to RANKL group (one-fold) (RAW264.7 cells),lateral migration of SW982 cells (SW982 cells),"IL-1β-induced proliferation of SW982 cells (SW982 synoviocytes; 10^−9 μM with 1 ng/mL IL-1β, 72 hours)","proliferation of SW982 cells (SW982 synoviocytes; 10^−9 to 10^−6 μM, 24 hours)",observation of treated mice (signs of toxicity) ([2]; oral once daily Week 4 to Week 6),"proliferation of SW982 cells (SW982 synoviocytes; 1 ng/mL, 24 h)"
"C[C@@H]1CCN(C(=O)CC#N)C[C@@H]1N(C)c1ncnc2[nH]ccc12 [Tofacitinib, reference compound]",neither 1- nor 2-week treatment of Tofacitinib was able to revert the BMD decrement,did not reduce the extent of surface roughness or the distortion of the bone contour,no significant difference in body weight changes,,,,,,,,,,,,,
"CC(C)[C@H](NC(=O)[C@H](C)NC(=O)[C@@H](NC(=O)[C@H](CCC(=O)O)NC(=O)[C@@H]1CCC(=O)N1)[C@@H](C)O)C(=O)N[C@@H](CO)C(=O)N[C@@H](CO)C(=O)N[C@@H](Cc1c[nH]cn1)C(=O)N[C@@H](CCC(=O)O)C(=O)N[C@@H](CCC(N)=O)C(=O)N[C@@H](CC(=O)O)C(=O)O [peptide of SEQ ID NO: 1, Glp Glu Thr Ala Val Ser Ser His Glu Gln Asp] ([pGlu]ETAVSSHEQD-OH)",,,no significant difference in body weight changes,no benefits in restoring the bone contour,no significant changes in BMD,no benefits in restoring the bone contour,no significant changes in BMD,much smoother cortical surfaces with fewer spiky projections of calcaneus bone,no increase in BMD,significant increases in BMD,about 0.5 fold,significantly reduced the lateral migration of SW982 cells,significantly suppress the IL-1β-induced proliferation of SW982 cells,effectively inhibit the proliferation of SW982 cells,"no signs of irritability, loss of vigor, or any skin or hair changes",
IL-1β: cytokine used to stimulate SW982 cells to simulate the inflammatory synoviocytes of rheumatoid arthritis [reference compound],,,,,,,,,,,,,,,,dramatically enhanced the proliferation of SW982 cells
